Measurements taken from the supplement of paper PMC10307832.

Key:
Assay in all cases: relative viability (nuclei count vs DMSO), 5 days (fraction); higher = more cells survive
[1] = compound: CC1=CC=C(C=C1)C(=O)CN2C3=C(CCCC3)SC2=N [Pifithrin_alpha] + O=C(c1cc(Cc2n[nH]c(=O)c3ccccc23)ccc1F)N1CCN(C(=O)C2CC2)CC1 [Olaparib] (partner 8 µM)
Procedure, shortened: (§1)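 The day after seeding in 1536-well plates, lung cancer cell lines were treated by pin tool with a single drug, or with a fixed anchor-drug dose together with five library-drug doses (not always all listed) in √10 steps. After 5 days, a combined fix-and-stain solution (final 0.05% Triton X-100, 1% formaldehyde, 1 ug/ml Hoechst) was added. Nuclei counted on 4× images gave relative viability as treated counts over vehicle counts, reported as the median of duplicate plates.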

Axitinib + Dasatinib = compound: CNC(=O)c1ccccc1Sc1ccc2c(/C=C/c3ccccn3)n[nH]c2c1 [Axitinib] + Cc1nc(Nc2ncc(C(=O)Nc3c(C)cccc3Cl)s2)cc(N2CCN(CCO)CC2)n1 [Dasatinib] (partner 0.075 µM)
Procedure, shortened: as §1

Axitinib + AZD7762 = compound: CNC(=O)c1ccccc1Sc1ccc2c(/C=C/c3ccccn3)n[nH]c2c1 [Axitinib] + NC(=O)Nc1cc(-c2cccc(F)c2)sc1C(=O)N[C@H]1CCCNC1 [AZD7762] (partner 0.2 µM)
Procedure, shortened: as §1

Axitinib + Pictilisib = compound: CNC(=O)c1ccccc1Sc1ccc2c(/C=C/c3ccccn3)n[nH]c2c1 [Axitinib] + CS(=O)(=O)N1CCN(Cc2cc3nc(-c4cccc5[nH]ncc45)nc(N4CCOCC4)c3s2)CC1 [Pictilisib] (partner 1 µM)
Procedure, shortened: as §1

Row | Cell Line | relative viability ([1]; first compound 1 µM) | relative viability ([1]; first compound 3.162 µM) | relative viability ([1]; first compound 10 µM) | relative viability ([1]; first compound 31.62 µM) | relative viability ([1]; first compound 100 µM) | relative viability (Axitinib + Dasatinib; first compound 0.005 µM) | relative viability (Axitinib + Dasatinib; first compound 0.01581 µM) | relative viability (Axitinib + Dasatinib; first compound 0.05 µM) | relative viability (Axitinib + Dasatinib; first compound 0.1581 µM) | relative viability (Axitinib + Dasatinib; first compound 0.5 µM) | relative viability (Axitinib + AZD7762; first compound 0.005 µM) | relative viability (Axitinib + AZD7762; first compound 0.01581 µM) | relative viability (Axitinib + AZD7762; first compound 0.05 µM) | relative viability (Axitinib + AZD7762; first compound 0.1581 µM) | relative viability (Axitinib + AZD7762; first compound 0.5 µM) | relative viability (Axitinib + Pictilisib; first compound 0.005 µM) | relative viability (Axitinib + Pictilisib; first compound 0.01581 µM) | relative viability (Axitinib + Pictilisib; first compound 0.05 µM) | relative viability (Axitinib + Pictilisib; first compound 0.1581 µM) | relative viability (Axitinib + Pictilisib; first compound 0.5 µM)
1 | 201T | 0.843 | 0.891 | 0.601 | 0.564 | 0.619 | 0.557 | 0.553 | 0.567 | 0.526 | 0.562 | 0.626 | 0.56 | 0.593 | 0.539 | 0.59 | 0.671 | 0.69 | 0.662 | 0.675 | 0.675
2 | A549 |  | 0.473 | 0.338 | 0.175 | 0.276 |  |  |  |  |  |  |  |  |  |  | 0.482 | 0.587 | 0.48 | 0.461 | 0.601
3 | A-427 | 0.676 | 0.623 | 0.574 | 0.339 | 0.493 | 0.69 | 0.644 | 0.807 | 0.697 | 0.769 | 0.805 | 0.77 | 0.807 | 0.718 | 0.887 | 0.672 | 0.496 | 0.77 | 0.705 | 0.679
4 | ABC-1 |  | 0.774 | 0.557 | 0.405 | 0.477 | 0.738 | 0.686 | 0.486 |  | 0.638 |  | 0.725 | 0.896 | 0.822 | 0.461 | 0.716 | 0.773 | 0.812 | 0.658 | 0.834
5 | BEN | 1.01 | 1.13 | 1.01 | 0.562 | 1.01 | 0.293 | 0.264 | 0.314 | 0.365 | 0.263 | 0.633 | 0.622 | 0.694 | 0.68 | 0.618 | 0.547 | 0.536 | 0.533 | 0.516 | 0.515
6 | CAL-12T | 0.706 | 0.631 | 0.535 | 0.46 | 0.574 | 0.603 | 0.448 | 0.367 | 0.38 | 0.405 | 0.623 | 0.576 | 0.615 | 0.564 | 0.561 | 0.385 | 0.393 | 0.513 | 0.492 | 0.396
7 | COR-L23 | 0.262 | 0.306 | 0.267 |  | 0.269 | 0.53 | 0.542 | 0.438 | 0.493 | 0.674 |  |  |  |  |  | 0.838 | 0.779 | 0.832 | 0.731 | 0.944
8 | COR-L 105 | 0.489 | 0.426 | 0.477 | 0.425 | 0.447 | 0.318 | 0.327 | 0.417 | 0.303 | 0.415 |  |  |  |  |  | 0.42 | 0.411 | 0.379 | 0.382 | 0.385
9 | Calu-6 | 0.534 | 0.536 | 0.46 |  | 0.427 |  |  |  |  |  |  |  |  |  |  | 0.861 | 0.946 | 1 | 0.942 | 1.17
10 | ChaGo-K-1 | 0.404 | 0.424 | 0.336 | 0.231 | 0.371 | 0.611 | 0.552 | 0.583 | 0.423 | 0.611 | 0.912 | 0.862 | 0.908 | 0.868 | 0.886 | 0.725 | 0.562 | 0.878 | 0.643 | 0.541
11 | EBC-1 | 0.621 | 0.552 | 0.348 | 0.298 | 0.363 |  |  |  |  |  |  |  |  |  |  | 0.492 | 0.485 | 0.459 | 0.41 | 0.567
12 | EKVX | 0.825 | 0.685 | 0.531 | 0.266 | 0.336 | 0.602 | 0.31 | 0.334 | 0.435 | 0.507 | 0.782 | 0.617 | 0.883 | 0.636 | 0.644 | 0.441 | 0.429 | 0.481 | 0.48 | 0.399
13 | EMC-BAC-2 | 0.419 | 0.412 |  | 0.252 | 0.351 | 0.353 | 0.327 | 0.315 | 0.379 | 0.383 | 1.07 | 1.1 | 1.06 | 1.1 | 1.11 | 0.569 | 0.533 | 0.534 | 0.555 | 0.529
14 | EPLC-272H | 0.762 | 0.585 | 0.72 | 0.425 | 0.467 | 0.342 | 0.337 | 0.372 | 0.353 | 0.241 | 0.245 | 0.165 | 0.269 | 0.234 | 0.197 | 0.317 | 0.289 | 0.391 | 0.272 | 0.313
15 | H3255 | 0.603 | 0.562 | 0.53 | 0.44 | 0.485 | 0.351 | 0.341 | 0.359 | 0.38 | 0.373 | 0.841 | 0.734 | 0.891 | 0.915 | 0.879 | 0.485 | 0.288 | 0.432 | 0.492 | 0.435
